How the values were obtained:
Assay in all cases: relative viability (nuclei count vs DMSO), 5 days (fraction); higher = more cells survive
SW 1573 = test system: SW 1573
How it was run: (§1)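 A single step with final 0.05% Triton X-100, 1% formaldehyde and 1 ug/ml Hoechst fixed the cells and stained nuclei 5 days after treatment. Lung cancer cell lines in 1536-well plates had been treated by pin tool the day after seeding with one drug alone or a fixed anchor-drug dose plus five library-drug doses (not always all listed) in √10 steps, and nuclei were counted on 4× images. Relative viability is the ratio of nuclei in treated wells to nuclei in vehicle wells, taken as the median of duplicate plates.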

NCI-H1993 = test system: NCI-H1993
How it was run: as §1

EMC-BAC-2 = test system: EMC-BAC-2
How it was run: as §1

NCI-H2085 = test system: NCI-H2085
How it was run: as §1

NCI-H647 = test system: NCI-H647
How it was run: as §1

SK-LU-1 = test system: SK-LU-1
How it was run: as §1

NCI-H322M = test system: NCI-H322M
How it was run: as §1

BEN = test system: BEN
How it was run: as §1

NCI-H727 = test system: NCI-H727
How it was run: as §1

LXF-289 = test system: LXF-289
How it was run: as §1

NCI-H1650 = test system: NCI-H1650
How it was run: as §1

LCLC-97TM1 = test system: LCLC-97TM1
How it was run: as §1

PC-14 = test system: PC-14
How it was run: as §1

HOP-62 = test system: HOP-62
How it was run: as §1

NCI-H1915 = test system: NCI-H1915
How it was run: as §1

NCI-H2009 = test system: NCI-H2009
How it was run: as §1

NCI-H661 = test system: NCI-H661
How it was run: as §1

H3255 = test system: H3255
How it was run: as §1

NCI-H1563 = test system: NCI-H1563
How it was run: as §1

NCI-H2126 = test system: NCI-H2126
How it was run: as §1

NCI-H2347 = test system: NCI-H2347
How it was run: as §1

NCI-H2342 = test system: NCI-H2342
How it was run: as §1

NCI-H2023 = test system: NCI-H2023
How it was run: as §1

NCI-H358 = test system: NCI-H358
How it was run: as §1

Q: `Clc1ccc(Nc2nnc(Cc3ccncc3)c3ccccc23)cc1` [Vatalanib] + N=C(N)NC(=N)NCCc1ccccc1 [Phenformin] (partner 250 µM) was tested. Which relative viability (SW 1573; first compound 0.04 µM) did it give?
A: 0.402

Q: What about the relative viability (SW 1573; first compound 0.1265 µM) of the same compound?
A: 0.374

Q: What about the relative viability (SW 1573; first compound 0.4 µM) of the same compound?
A: 0.368

Q: What about the relative viability (SW 1573; first compound 1.265 µM) of the same compound?
A: 0.324

Q: What about the relative viability (SW 1573; first compound 4 µM) of the same compound?
A: 0.347

Q: And the relative viability (NCI-H1993; first compound 0.04 µM)?
A: 0.492

Q: And the relative viability (NCI-H1993; first compound 0.1265 µM)?
A: 0.533

Q: What about the relative viability (NCI-H1993; first compound 0.4 µM) of the same compound?
A: 0.601

Q: What about the relative viability (NCI-H1993; first compound 1.265 µM) of the same compound?
A: 0.482

Q: What about the relative viability (NCI-H1993; first compound 4 µM) of the same compound?
A: 0.534

Q: What about the relative viability (EMC-BAC-2; first compound 0.04 µM) of the same compound?
A: 0.511

Q: And the relative viability (EMC-BAC-2; first compound 0.1265 µM)?
A: 0.538

Q: What about the relative viability (EMC-BAC-2; first compound 0.4 µM) of the same compound?
A: 0.542

Q: And the relative viability (EMC-BAC-2; first compound 1.265 µM)?
A: 0.497

Q: What about the relative viability (EMC-BAC-2; first compound 4 µM) of the same compound?
A: 0.512

Q: And the relative viability (NCI-H2085; first compound 0.04 µM)?
A: 0.701

Q: And the relative viability (NCI-H2085; first compound 0.1265 µM)?
A: 0.668

Q: And the relative viability (NCI-H2085; first compound 0.4 µM)?
A: 0.734

Q: What about the relative viability (NCI-H2085; first compound 1.265 µM) of the same compound?
A: 0.724

Q: What about the relative viability (NCI-H2085; first compound 4 µM) of the same compound?
A: 0.632

Q: What about the relative viability (NCI-H647; first compound 0.04 µM) of the same compound?
A: 0.466

Q: What about the relative viability (NCI-H647; first compound 0.1265 µM) of the same compound?
A: 0.562

Q: What about the relative viability (NCI-H647; first compound 0.4 µM) of the same compound?
A: 0.521

Q: And the relative viability (NCI-H647; first compound 1.265 µM)?
A: 0.401

Q: What about the relative viability (NCI-H647; first compound 4 µM) of the same compound?
A: 0.54

Q: And the relative viability (SK-LU-1; first compound 0.04 µM)?
A: 0.631

Q: And the relative viability (SK-LU-1; first compound 0.1265 µM)?
A: 0.462

Q: What about the relative viability (SK-LU-1; first compound 0.4 µM) of the same compound?
A: 0.663

Q: What about the relative viability (SK-LU-1; first compound 1.265 µM) of the same compound?
A: 0.494

Q: And the relative viability (SK-LU-1; first compound 4 µM)?
A: 0.52

Q: What about the relative viability (NCI-H322M; first compound 0.04 µM) of the same compound?
A: 0.755

Q: And the relative viability (NCI-H322M; first compound 0.1265 µM)?
A: 0.789

Q: What about the relative viability (NCI-H322M; first compound 0.4 µM) of the same compound?
A: 0.826

Q: What about the relative viability (NCI-H322M; first compound 1.265 µM) of the same compound?
A: 0.685

Q: And the relative viability (NCI-H322M; first compound 4 µM)?
A: 0.759

Q: And the relative viability (BEN; first compound 0.04 µM)?
A: 0.29

Q: What about the relative viability (BEN; first compound 0.1265 µM) of the same compound?
A: 0.233

Q: What about the relative viability (BEN; first compound 0.4 µM) of the same compound?
A: 0.274

Q: What about the relative viability (BEN; first compound 1.265 µM) of the same compound?
A: 0.231

Q: And the relative viability (BEN; first compound 4 µM)?
A: 0.306

Q: What about the relative viability (NCI-H727; first compound 0.04 µM) of the same compound?
A: 0.531

Q: What about the relative viability (NCI-H727; first compound 0.1265 µM) of the same compound?
A: 0.572

Q: What about the relative viability (NCI-H727; first compound 0.4 µM) of the same compound?
A: 0.519

Q: What about the relative viability (NCI-H727; first compound 1.265 µM) of the same compound?
A: 0.558

Q: What about the relative viability (NCI-H727; first compound 4 µM) of the same compound?
A: 0.466

Q: And the relative viability (LXF-289; first compound 0.04 µM)?
A: 0.505

Q: And the relative viability (LXF-289; first compound 0.1265 µM)?
A: 0.465

Q: And the relative viability (LXF-289; first compound 0.4 µM)?
A: 0.558

Q: What about the relative viability (LXF-289; first compound 1.265 µM) of the same compound?
A: 0.53

Q: And the relative viability (LXF-289; first compound 4 µM)?
A: 0.539

Q: What about the relative viability (NCI-H1650; first compound 0.04 µM) of the same compound?
A: 0.401

Q: What about the relative viability (NCI-H1650; first compound 0.1265 µM) of the same compound?
A: 0.307

Q: What about the relative viability (NCI-H1650; first compound 0.4 µM) of the same compound?
A: 0.36

Q: What about the relative viability (NCI-H1650; first compound 1.265 µM) of the same compound?
A: 0.364

Q: And the relative viability (NCI-H1650; first compound 4 µM)?
A: 0.403

Q: What about the relative viability (LCLC-97TM1; first compound 0.04 µM) of the same compound?
A: 0.417

Q: And the relative viability (LCLC-97TM1; first compound 0.1265 µM)?
A: 0.388

Q: And the relative viability (LCLC-97TM1; first compound 0.4 µM)?
A: 0.46

Q: And the relative viability (LCLC-97TM1; first compound 1.265 µM)?
A: 0.407

Q: And the relative viability (LCLC-97TM1; first compound 4 µM)?
A: 0.396

Q: What about the relative viability (PC-14; first compound 0.04 µM) of the same compound?
A: 0.552

Q: And the relative viability (PC-14; first compound 0.1265 µM)?
A: 0.466

Q: And the relative viability (PC-14; first compound 1.265 µM)?
A: 0.458

Q: What about the relative viability (PC-14; first compound 4 µM) of the same compound?
A: 0.541

Q: And the relative viability (HOP-62; first compound 0.04 µM)?
A: 0.668

Q: What about the relative viability (HOP-62; first compound 0.1265 µM) of the same compound?
A: 0.65

Q: And the relative viability (HOP-62; first compound 0.4 µM)?
A: 0.649

Q: And the relative viability (HOP-62; first compound 1.265 µM)?
A: 0.624

Q: And the relative viability (HOP-62; first compound 4 µM)?
A: 0.633

Q: And the relative viability (NCI-H1915; first compound 0.04 µM)?
A: 0.374

Q: What about the relative viability (NCI-H1915; first compound 0.1265 µM) of the same compound?
A: 0.345

Q: What about the relative viability (NCI-H1915; first compound 0.4 µM) of the same compound?
A: 0.399

Q: What about the relative viability (NCI-H1915; first compound 1.265 µM) of the same compound?
A: 0.38

Q: And the relative viability (NCI-H1915; first compound 4 µM)?
A: 0.371

Q: And the relative viability (NCI-H2009; first compound 0.04 µM)?
A: 0.578

Q: And the relative viability (NCI-H2009; first compound 0.1265 µM)?
A: 0.439

Q: And the relative viability (NCI-H2009; first compound 0.4 µM)?
A: 0.464

Q: And the relative viability (NCI-H2009; first compound 1.265 µM)?
A: 0.406

Q: And the relative viability (NCI-H2009; first compound 4 µM)?
A: 0.391

Q: What about the relative viability (NCI-H661; first compound 0.04 µM) of the same compound?
A: 0.32

Q: And the relative viability (NCI-H661; first compound 0.1265 µM)?
A: 0.248

Q: And the relative viability (NCI-H661; first compound 0.4 µM)?
A: 0.304

Q: What about the relative viability (NCI-H661; first compound 1.265 µM) of the same compound?
A: 0.267

Q: What about the relative viability (NCI-H661; first compound 4 µM) of the same compound?
A: 0.286

Q: And the relative viability (H3255; first compound 0.04 µM)?
A: 0.397

Q: And the relative viability (H3255; first compound 0.1265 µM)?
A: 0.392

Q: And the relative viability (H3255; first compound 0.4 µM)?
A: 0.316

Q: What about the relative viability (H3255; first compound 1.265 µM) of the same compound?
A: 0.368

Q: What about the relative viability (H3255; first compound 4 µM) of the same compound?
A: 0.368

Q: And the relative viability (NCI-H1563; first compound 0.04 µM)?
A: 0.641

Q: What about the relative viability (NCI-H1563; first compound 0.1265 µM) of the same compound?
A: 0.673

Q: What about the relative viability (NCI-H1563; first compound 0.4 µM) of the same compound?
A: 0.666

Q: What about the relative viability (NCI-H1563; first compound 1.265 µM) of the same compound?
A: 0.712

Q: What about the relative viability (NCI-H1563; first compound 4 µM) of the same compound?
A: 0.639

Q: What about the relative viability (NCI-H2126; first compound 0.04 µM) of the same compound?
A: 0.508

Q: What about the relative viability (NCI-H2126; first compound 0.1265 µM) of the same compound?
A: 0.521

Q: And the relative viability (NCI-H2126; first compound 0.4 µM)?
A: 0.453

Q: And the relative viability (NCI-H2126; first compound 1.265 µM)?
A: 0.487

Q: And the relative viability (NCI-H2126; first compound 4 µM)?
A: 0.546

Q: What about the relative viability (NCI-H2347; first compound 0.04 µM) of the same compound?
A: 0.323

Q: And the relative viability (NCI-H2347; first compound 0.1265 µM)?
A: 0.426

Q: And the relative viability (NCI-H2347; first compound 0.4 µM)?
A: 0.401

Q: And the relative viability (NCI-H2347; first compound 1.265 µM)?
A: 0.266

Q: What about the relative viability (NCI-H2347; first compound 4 µM) of the same compound?
A: 0.389

Q: What about the relative viability (NCI-H2342; first compound 0.04 µM) of the same compound?
A: 0.573

Q: And the relative viability (NCI-H2342; first compound 0.1265 µM)?
A: 0.477

Q: What about the relative viability (NCI-H2342; first compound 0.4 µM) of the same compound?
A: 0.461

Q: And the relative viability (NCI-H2342; first compound 1.265 µM)?
A: 0.652

Q: What about the relative viability (NCI-H2342; first compound 4 µM) of the same compound?
A: 0.53

Q: And the relative viability (NCI-H2023; first compound 0.04 µM)?
A: 0.447

Q: What about the relative viability (NCI-H2023; first compound 0.1265 µM) of the same compound?
A: 0.397

Q: And the relative viability (NCI-H2023; first compound 0.4 µM)?
A: 0.477

Q: What about the relative viability (NCI-H2023; first compound 1.265 µM) of the same compound?
A: 0.376

Q: What about the relative viability (NCI-H2023; first compound 4 µM) of the same compound?
A: 0.341

Q: And the relative viability (NCI-H358; first compound 0.04 µM)?
A: 0.32

Q: And the relative viability (NCI-H358; first compound 0.1265 µM)?
A: 0.304

Q: And the relative viability (NCI-H358; first compound 0.4 µM)?
A: 0.381

Q: And the relative viability (NCI-H358; first compound 1.265 µM)?
A: 0.367

Q: And the relative viability (NCI-H358; first compound 4 µM)?
A: 0.326
